Test results published in patent US7803760B2, “Methods of inducing ovulation” (Merck Serono SA, priority 2000, dated 2010).

Experiments:
immature female rats [1] = assay: In vivo ovulation model: FSH-matured follicles in immature rats, oocytes in oviduct counted 18 hours after administration; parameters: species or system rat; conditions: FSH pretreated rats
Source text: The role of FSH in any ovulation induction regimen is for promoting follicular development and maturation, not ovulation induction.
All injections were subcutaneous. Results are expressed as mean plus or minus standard deviations. […] The effects of Compound 1, a known PDE inhibitor, are shown.
Data represent average number of oocytes in oviducts of all rats in each group and frequency of ovulating rats. […] Results are expressed as mean plus or minus standard deviations.
Data represent average number of oocytes in oviducts of all rats in each group and frequency of ovulating rats. Results are expressed as mean plus or minus standard deviations.
(§1) Following FSH induced follicular maturation (2.16 IU/rat/injection; bid×2 days) Compound 2 was either injected subcutaneously (subcutis) or administered by oral gavage. Ovulation was determined 18 hours after Compound 2 administration by counting oocytes in oviduct. Data represent average number of oocytes in oviducts of all rats in each group and frequency of ovulating rats. Results are expressed as mean plus or minus standard deviations.
as §1, with “days) […] was either” for “days) Compound 2 was either”

[2] = tested on: rat ovarian granulosa cells; assay: Rat ovarian granulosa cell cAMP levels in vitro (cAMP RIA of conditioned media); format: cell-based; conditions: 25 micromolar compound with sub-effective (0.1 pM) gonadotropin, 48 hrs, FIG. 2
Protocol: Ovaries were removed from immature 25 day old, hypophysectomized, diethylstilbesterol treated Sprague-Dawley rats. The ovaries were repeatedly punctured with 27 gauge needles to liberate granulosa cells from the follicles. Cells were washed and re-suspended in McCoys SA media+0.1% BSA+2 μM androstenedione. Viable cells in number of 100,000 were loaded into 6-well tissue culture dishes in a 1.0 ml volume (with Compound 1 and Compound 2 at a concentration of 25 micromolar, either alone or in conjunction with a low, 0.1 pM dose of gonadotropin). Plates were incubated in a 37° C. incubator, 100% humidity, 5.0% CO2 for 48 hrs. Conditioned media were assayed in a cAMP specific radioimmunoassay (RIA). Results are expressed as mean plus or minus standard deviations.

immature female rats [3] = assay: Follicle maturation in vivo: co-administration with sub-optimal FSH, then ovulatory hCG, oocytes in oviduct counted; parameters: species or system rat; conditions: FIG. 3
Protocol: Mature ovarian follicles generated in immature female rats by treatment with a sub-optimal dose of FSH (1.08 IU/rat/injection; bid×3 days) with and without co-administration of Compound 1 (0.1, 1, 10, and 50 mg/kg/injection: bid×3 days). […] The PDE inhibitors were given in conjunction with sub-optimal doses of FSH.
All injections were subcutaneously administered. […] Results are expressed as mean plus or minus standard deviations. […] As also noted in FIG. 3, a PDE inhibitor (Compound 1) inhibited (rather than stimulated) both ovulation administered at 50 mg/kg.

immature rats = assay: Ovulation and fertility in FSH/PMSG pretreated immature rats; format: in vivo, rat; conditions: single subcutaneous injection, FIG. 10
Protocol: Follicular maturation was induced in immature rats with FSH (4.33 IU/rat/injection; bid×2 days) and Pregnant Mare's Serum Gonadotropin (PMSG) (1.5 IU/rat/injection; bid X 2 days). […] FSH and PMSG induced rats were then treated with either Compound 2 (12 rats) or vehicle (12 rats) by subcutaneous administration. In one cohort of rats (6 rats per treatment), ovulation was determined 18 hours after Compound 2 or vehicle administration by counting oocytes in oviduct. To assess fertility, another cohort of rats (6 rats per treatment) were individually placed overnight in a cage together with a single adult male rat of proven fertility. The next day, male rats were removed and the females were caged together by group until the day of parturition. The number of live full-term pups observed at the time of parturition was recorded. […] Results for both ovulation and live pups are expressed as mean plus or minus standard deviations.

[4] = single subcutaneous injection co-administered with sub-effective dose of hCG
[5] = subcutaneous, compound alone without hCG
[6] = oral gavage, compound alone without hCG

Compound	ovulation (oocytes in oviduct) (immature female rats [1]; [4])	ovulation (oocytes in oviduct) (immature female rats [1]; [5])	cAMP levels [2]	ovulation (oocytes in oviduct) (immature female rats [3]; 50 mg/kg/injection bid x 3 days s.c. with sub-optimal FSH (1.08 IU), ovulatory hCG 20 IU)	ability of a sub-optimal dose of FSH to prepare follicles to ovulate (immature female rats [3]; increasing doses 0.1, 1, 10, 50 mg/kg/injection bid x 3 days s.c.)	ovulation (oocytes in oviduct) (immature female rats [1]; [6])	number of live full-term pups at parturition (immature rats; FSH/PMSG pretreated rats mated overnight)	ovulation (oocytes in oviduct) (immature rats; FSH/PMSG pretreated rats, 18 hours)
COc1ccc([C@]2(C#N)CC[C@@H](C(=O)O)CC2)cc1OC1CCCC1 [Compound 1, Cis-4-cyano-4-(3-(cyclopentyloxy)-4-methoxyphenyl)cyclohexane-1-carboxylic acid]	induction of ovulation	induction of ovulation	significant increase in cAMP levels	inhibited	failed to enhance			
COc1ccc(C(=O)Nc2c(Cl)cncc2Cl)cc1OC1CCCC1 [Compound 2, 3-(Cyclopentyloxy)-N-(3,5-dichloropyridin-4-yl)-4-methoxybenzamide]		induction of ovulation	significant increase in cAMP levels			induction of ovulation	increased number of live pups	induction of ovulation
CCOc1cc2cc(CO)c(CO)c(-c3ccnc(-n4nc(-c5cccnc5)c5ccccc5c4=O)c3)c2cc1OCC.Cl [Compound 3, 2-(4-(6,7-Diethoxy-2,3-bis(hydroxymethyl)naphthalen-1-yl)pyridin-2-yl)-4-(3-pyridyl)pthalazin-1(2H)-one hydrochloride]		induction of ovulation				induction of ovulation		
Clc1nc2c(N3CCCC3)nc(N3CCNCC3)nc2nc1NCc1ccccc1 [Compound 4, 7-Benzylamino-6-chloro-2-piperazino-4-pyrrolidinopteridine]	induction of ovulation	little or no ovulation						
